From US20040014143A1, “Method and apparatus for detecting and monitoring peptides, and peptides identified therewith” (priority 2002, published 2004)
Like-named read-outs stand apart in the source and are kept apart here.

Legend:
GABA production = settings: previous microdialysis studies; cited from earlier work
[1] = tested on: neurotransmitter levels (aspartate, GABA, glutamate); settings: infusion of 10 μM peptide into the dialysis probe, n=2
opioid receptors = assay: Receptor assays probing binding to opioid receptors; settings: data not shown

Molecule	effect on GABA production (GABA production)	GABA level (change in words) [1]	aspartate level (change in words) [1]	glutamate levels (change in words) [1]	GABA level (change in words) ([1]; listed as I11lo peptide)	aspartate level (change in words) ([1]; listed as I11lo peptide)	binding to opioid receptors (opioid receptors)	glutamate levels (GABA production)
YGGFL [Leu-enkephalin]	inhibits nicotine-stimulated GABA production	–	–	–	–	–	–	–
SPQLEDEAKE (listed as Rattus norvegicus) [peptide I1-10, novel product of preproenkephalin A processing]	–	increase	increase	remained the same	increases	increases	negative	–
CN1CCc2cccc3c2[C@H]1Cc1ccc(O)c(O)c1-3 [apomorphine]	stimulates GABA production	–	–	–	–	–	–	remain the same
